Data on 15 compounds can be found in patent publication US20260151403A1, “NEK7 DEGRADERS AND METHODS OF USE THEREOF” (Captor Therapeutics S.A., priority 2022, published 2026).

The structures appear in SMILES notation. Counter-ions that a name gives are not always drawn. A value given as a limit tells only on which side of the number the result lay.

The target in assay [1] is T1, [NEK7]-[compound of formula (I)]-[CRBN/DDB1] complex (Homo sapiens, UniProt Q8TDX7+Q96SW2). The assay can be described thus: AlphaLISA dose response ternary complex formation assay. It counts as binding. The note with it: 1 μM compound, normalized to maximum signal of Compound 2 (positive control) and DMSO background; for activation at 1 µM: read-out: Normalized AlphaLISA ternary complex average signal at 1 μM molecule. As for the experimental part: The effect of the molecular glue compounds of the invention on the formation of a ternary complex composed of [NEK7]-[compound of formula (I)]-[CRBN/DDB1] was investigated with two methods: AlphaLISA dose response assay or HTRF ternary complex assay.
T1 sequence (Q8TDX7 whole entry): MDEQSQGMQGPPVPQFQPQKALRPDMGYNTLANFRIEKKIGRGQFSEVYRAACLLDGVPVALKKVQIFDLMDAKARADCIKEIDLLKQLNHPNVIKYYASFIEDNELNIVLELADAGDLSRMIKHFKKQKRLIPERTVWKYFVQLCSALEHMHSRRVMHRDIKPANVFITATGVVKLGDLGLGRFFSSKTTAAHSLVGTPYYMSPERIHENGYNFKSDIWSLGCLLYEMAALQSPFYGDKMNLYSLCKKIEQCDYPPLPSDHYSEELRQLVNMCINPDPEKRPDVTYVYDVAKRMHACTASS
T1 sequence (Q96SW2 whole entry): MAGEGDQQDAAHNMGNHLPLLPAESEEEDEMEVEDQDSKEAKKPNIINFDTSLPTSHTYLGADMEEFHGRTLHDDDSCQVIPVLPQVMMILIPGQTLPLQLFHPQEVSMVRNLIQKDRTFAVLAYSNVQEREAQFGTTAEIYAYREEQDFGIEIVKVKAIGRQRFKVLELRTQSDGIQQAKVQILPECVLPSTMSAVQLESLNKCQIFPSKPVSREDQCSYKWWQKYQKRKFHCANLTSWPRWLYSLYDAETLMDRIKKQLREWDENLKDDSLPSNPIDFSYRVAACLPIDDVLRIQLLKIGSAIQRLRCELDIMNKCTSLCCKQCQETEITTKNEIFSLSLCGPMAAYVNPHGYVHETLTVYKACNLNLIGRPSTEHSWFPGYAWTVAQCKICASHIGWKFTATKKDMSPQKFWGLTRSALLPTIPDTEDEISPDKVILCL
T1 sequence (Q16531 whole entry partner): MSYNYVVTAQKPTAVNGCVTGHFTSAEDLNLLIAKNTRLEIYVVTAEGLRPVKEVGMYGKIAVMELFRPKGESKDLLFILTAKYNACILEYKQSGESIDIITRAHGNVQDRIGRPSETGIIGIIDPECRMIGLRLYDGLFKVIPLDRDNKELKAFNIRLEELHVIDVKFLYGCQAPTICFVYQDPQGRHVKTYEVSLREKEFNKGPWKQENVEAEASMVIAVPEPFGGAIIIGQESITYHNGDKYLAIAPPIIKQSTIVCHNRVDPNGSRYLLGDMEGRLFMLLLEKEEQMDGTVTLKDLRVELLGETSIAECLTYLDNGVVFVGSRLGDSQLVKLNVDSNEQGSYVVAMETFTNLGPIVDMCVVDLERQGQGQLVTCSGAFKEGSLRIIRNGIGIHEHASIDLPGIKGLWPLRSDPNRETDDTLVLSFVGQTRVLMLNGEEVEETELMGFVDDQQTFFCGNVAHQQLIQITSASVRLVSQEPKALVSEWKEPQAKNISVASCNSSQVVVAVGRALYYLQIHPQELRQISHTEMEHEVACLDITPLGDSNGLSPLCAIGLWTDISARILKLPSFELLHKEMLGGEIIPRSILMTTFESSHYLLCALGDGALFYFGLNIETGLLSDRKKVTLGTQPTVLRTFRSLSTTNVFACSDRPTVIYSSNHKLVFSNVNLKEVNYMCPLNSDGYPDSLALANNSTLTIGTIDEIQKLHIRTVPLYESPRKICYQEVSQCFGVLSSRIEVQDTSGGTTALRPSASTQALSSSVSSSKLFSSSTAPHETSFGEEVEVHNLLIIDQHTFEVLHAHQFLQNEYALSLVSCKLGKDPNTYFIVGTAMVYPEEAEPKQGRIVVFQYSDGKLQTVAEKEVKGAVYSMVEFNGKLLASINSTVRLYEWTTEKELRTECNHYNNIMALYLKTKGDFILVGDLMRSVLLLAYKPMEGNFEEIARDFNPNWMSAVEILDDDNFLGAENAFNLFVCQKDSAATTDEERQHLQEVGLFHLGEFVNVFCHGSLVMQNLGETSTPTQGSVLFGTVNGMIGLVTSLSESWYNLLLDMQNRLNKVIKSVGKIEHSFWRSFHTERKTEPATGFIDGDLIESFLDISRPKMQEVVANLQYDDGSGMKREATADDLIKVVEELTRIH
Two types of protein solution were prepared: • 200 nM biotinylated NEK7, 40 μg/ml AlphaScreen Streptavidin-coated Donor Beads in HBS (10 mM HEPES, 150 mM NaCL, pH 7.4) buffer with 0.1% Tween-20 and 1 mM DTT, • 200 nM 6×His-CRBN/Strep-DDB1, 40 μg/ml AlphaLISA Anti-6×His Acceptor beads in HBS buffer with 0.1% Tween-20 and 1 mM DTT.
The prepared solutions were incubated at room temperature for 30 min and then the solution containing the donor beads was mixed with the solution containing the acceptor beads.
The tested compounds were dispensed onto a white 384-well AlphaPlate 384 SW. DMSO was backfilled to all wells, resulting in a final DMSO content of 2%. Wells containing only DMSO served as background. Next, 10 μl of solution with donor and acceptor beads was added to the wells.
The plate was sealed with transparent film and shaken using a VibroTurbulator for 60 sec at room temperature, level 3. The plate was then spun down shortly (10 s, 1000 rcf, room temperature) and incubated at 25° C. for 30 min.
The read-out was performed with PerkinElmer Enspire Multimode Plate Reader (method for AlphaLISA 384-well low volume, Filterset: λexc=680 nm, λem=615 nm).
The results were analyzed as follows: • 1) an average of luminescence for background signal was calculated and used as a negative control; • 2) average of the maximum measured luminescence for Compound 2 was calculated and used as an internal positive control; • 3) raw luminescence values were normalized against positive and negative controls; • 4) Normalized responses to Compound 2 were determined.
On the technique in general: Alpha assays give light when donor and acceptor beads are brought close together.

The target of a further assay is NEK7-HiBiT protein (Homo sapiens, UniProt Q8TDX7). The assay can be described thus: NEK7-HiBiT degradation assay (Nano-Glo HiBiT Lytic Assay) in HEK293 NEK7-HiBiT cells. The class given is cell-based. The note with it: 24 h, conc. 0.1, 1 and 10 μM tested, concentration of the table values not stated, mean of 3 technical replicates. The protocol: HEK293 NEK7-HiBiT cells were generated using CRISPR-Cas9 system. HEK293 cells were transformed with pSpCas9-BB-2A-Puro v2.0 plasmid carrying gRNA targeting the N-terminus of NEK7 and ssODN template containing the HiBiT tag sequence with flanking homology sequences. Neon Transfection System (Thermo Fisher Scientific) was used for electroporation. HEK293 NEK7-HiBiT cells were cultured with DMEM Glutamax (Gibco) supplemented with 10% heat inactivated FBS (Gibco). After transfection the culture medium was changed to DMEM Glutamax with 10% heat-inactivated FBS and 1% Penicillin-Streptomycin (Biowest) supplemented with Puromycin (2 μg/ml; Invivogen) for clonal selection. In order to isolate single cell clones for further validation and analysis, limiting dilution cloning in 96-well plates was performed. When the single clones reached confluency, HiBiT Lytic Assay (Promega) was performed in order to identify HiBiT positive clones. The clone selected for further studies was verified and validated using genotyping and HiBiT Blotting (Promega).
Chain of NEK7-HiBiT protein (Q8TDX7 whole entry): as the sequence (Q8TDX7 whole entry) above
Chain of NEK7-HiBiT protein (Q96SW2 whole entry, further chain): as the sequence (Q96SW2 whole entry) above
Chain of NEK7-HiBiT protein (Q16531 whole entry partner): as the sequence (Q16531 whole entry partner) above
Selected clone of HEK293 NEK7-HiBiT cells was maintained in the DMEM-Glutamax medium supplemented with 10% of heat-inactivated FBS (Gibco) and 1% of Penicillin-Streptomycin Solution 100x (Biowest) at 37° C., 5% CO2 and subcultured every 2-3 days.
For Nano-Glo HiBiT Lytic Assay HEK293 NEK7-HiBiT cells were seeded at the density 2×10^3 cells in triplicates in the 40 μL of growth medium per single well on 384 well plate (Greiner Bio-One). Compounds or DMSO were added to treatment plates using Echo555 Liquid Handler and incubated at 37° C., 5% CO2 for 24 hours. After incubation 40 μL of Nano-Glo HiBiT Lytic Reagent (prepared according to the manufacturer protocol) were added to 40 μL of the cell culture medium present in each well. The plate content was briefly mixed (460 rpm) on an orbital shaker to ensure cell lysis. The plate was left at RT protected from light for another 10 min to stabilize the luminescent signal. The luminescence signal was measured using CLARIOstar Multimode Plate Reader. Focus and gain were adjusted to DMSO treated cells. The results were calculated as the NEK7-HiBiT % relative to the DMSO control of 3 technical replicates relative to the DMSO control.
HEK293 NEK7-HiBiT cells were treated with the compounds (conc. 0.1, 1 and 10 μM) or DMSO for 24 h. After incubation with compounds NEK7-HiBiT degradation was measured as a luminescence signal using CLARIOstar Multimode Plate reader.
Additionally, compounds reducing NEK7-HiBiT protein level by >=50% at 0.1 μM, were also identified.
Background: HiBiT is a short tag that completes a luciferase, so light tracks the accessible tagged protein.

The target in assay [2] is T1, [NEK7]-[compound of formula (I)]-[CRBN/DDB1] complex. The assay can be described thus: HTRF ternary complex assay. It counts as binding. To be noted: dose-response, 180 min at 25° C.; for EC50: read-out: HTRF ternary complex Average pEC50 by molecule (converted). The protocol:
The effect of the molecular glue compounds of the invention on the formation of a ternary complex composed of [NEK7]-[compound of formula (I)]-[CRBN/DDB1] was investigated.
Mix solution of proteins and reagents was prepared: • 24 nM NEK7, 52.8 nM 6×His-CRBN/Strep-DDB1, 3 nM of Streptavidin-Eu cryptate […] and 6.67 nM of Anti-6×his-d2 […] was prepared in PPI Europium detection buffer (Cisbio) with 1 mM DTT.
The tested compounds in dose-response were dispensed onto a white 384-well low volume plate (Greiner, 784075). DMSO was backfilled to all wells, resulting in a final DMSO content of 0.5%. Wells containing only DMSO served as background.
The plate was sealed with transparent film and shaken using a VibroTurbulator for 60 sec at level 3.
The plate was then spun down shortly (10 s, 1000 rcf) and incubated at 25° C. for 180 min.
The read-out was performed with plate reader (Pherastar, BMG Labtech) in time resolved fluorescence mode. Filterset: TR 337 665 620.
The results were analyzed as follows: • 1) an average of fluorescence for background signal was calculated and used as a negative control; • 2) raw fluorescence values for tested compounds were normalized against negative controls; • 3) saturation curve was fitted to specific binding with Hill slope model; • 4) EC50 and pEC50 values were determined.

Take `O=C1CCCC(N2Cc3cc(-c4ccccn4)ccc3C2=O)C(=O)N1` (centres unmarked) [29(2), 3-(1-oxo-5-(pyridin-2-yl)isoindolin-2-yl)azepane-2,7-dione]: in assay [1], the activation at 1 µM is below 10%. The “Levels of NEK7-HiBiT Protein (as a % of DMSO control)” value (“Levels … (as a % of DMSO control)” below) at NEK7-HiBiT protein is “D (Levels of NEK7-HiBiT Protein ≥ 75%)”. In addition, the EC50 in assay [2] is above 3160 nM.
For `CC(=O)NC1CCC(c2ccc3c(c2)CN(C2CCC(=O)NC2=O)C3=O)NC1` (single isomer, unassigned) [33 Isomer 2, N-(6-(2-(2,6-dioxopiperidin-3-yl)-1-oxoisoindolin-5-yl)piperidin-3-yl)acetamide], the “Normalized AlphaLISA ternary complex average signal at 1 μM molecule” value in assay [1] was “B (Normalized activity > 20% and <80%)”. Moreover, the “Levels … (as a % of DMSO control)” value on NEK7-HiBiT protein is “B (Levels of NEK7-HiBiT Protein > 25% and ≤50%)”. Besides, the “HTRF ternary complex Average pEC50 by molecule” value in assay [2] was “++++ (7.0 > pEC50 > 6.5)”.
Take `O=C1CCC(N2Cc3cc([C@@H]4CCCCN4)ccc3C2=O)C(=O)N1` (stereo partly drawn) [Compound 10, 3-(1-oxo-5-((S)-piperidin-2-yl)isoindolin-2-yl)piperidine-2,6-dione]: the activation at 1 µM in assay [1] fell in the range of 10 to 20%. In addition, the “Levels … (as a % of DMSO control)” value at NEK7-HiBiT protein was “C (Levels of NEK7-HiBiT Protein > 50% and <75%)”. Moreover, the EC50 in assay [2] was 316 to 1000 nM.
As for `O=C1CCC(N2C(=O)c3ccc(C4CCCCN4)c4cccc2c34)C(=O)N1` (centres unmarked) [Compound 66, 3-(2-oxo-5-(piperidin-2-yl)benzo[cd]indol-1 (2H)-yl)piperidine-2,6-dione trifluoroacetate], in assay [1], the activation at 1 µM lay in the range of 10 to 20%. Besides, the “Levels … (as a % of DMSO control)” value at NEK7-HiBiT protein was “B (Levels of NEK7-HiBiT Protein > 25% and ≤50%)”. In addition, in assay [2], the EC50 is 100 to 316 nM.
For `O=C1CCC(N2Cc3cc(-c4ccc5ccccc5n4)ccc3C2=O)C(=O)N1` (centres unmarked) [5(2), 3-(1-oxo-5-(quinolin-2-yl)isoindolin-2-yl)piperidine-2,6-dione], the activation at 1 µM in assay [1] was above 80%. On NEK7-HiBiT protein, the “Levels … (as a % of DMSO control)” value is “B (Levels of NEK7-HiBiT Protein > 25% and ≤50%)”. In addition, the EC50 in assay [2] is 100 to 316 nM.
Consider `O=C1CCC(N2Cc3cc(C4CCCC(C(F)(F)F)N4)ccc3C2=O)C(=O)N1` (centres unmarked) [Compound 60, 3-(1-oxo-5-(6-(trifluoromethyl)piperidin-2-yl)isoindolin-2-yl)piperidine-2,6-dione], for which the activation at 1 µM in assay [1] was below 10%. Further, the “Levels … (as a % of DMSO control)” value at NEK7-HiBiT protein was “C (Levels of NEK7-HiBiT Protein > 50% and <75%)”. Further, the EC50 in assay [2] was 316 to 1000 nM.
For `O=C1CCC(N2Cc3cc(-c4ccccn4)sc3C2=O)C(=O)N1` (centres unmarked) [30(2), 3-(6-oxo-2-(pyridin-2-yl)-4,6-dihydro-5H-thieno[2,3-c]pyrrol-5-yl)piperidine-2,6-dione], in assay [1], the activation at 1 µM was below 10%. In addition, the “Levels … (as a % of DMSO control)” value at NEK7-HiBiT protein is recorded as “D (Levels of NEK7-HiBiT Protein ≥ 75%)”. Besides, the EC50 in assay [2] is above 3160 nM.
On to `O=C1CCC(N2Cc3cc(-c4cc5ccccc5cn4)ccc3C2=O)C(=O)N1` (centres unmarked) [6(2), 3-(5-(isoquinolin-3-yl)-1-oxoisoindolin-2-yl)piperidine-2,6-dione], for which, in assay [1], the activation at 1 µM was above 80%. The “Levels … (as a % of DMSO control)” value on NEK7-HiBiT protein was “B (Levels of NEK7-HiBiT Protein > 25% and ≤50%)”. In assay [2], the EC50 was 100 to 316 nM.
In the case of `O=C1CCC(N2Cc3cc(C4CCCCN4)sc3C2=O)C(=O)N1` (centres unmarked) [Compound 72, 3-(6-oxo-2-(piperidin-2-yl)-4,6-dihydro-5H-thieno[2,3-c]pyrrol-5-yl)piperidine-2,6-dione], the activation at 1 µM in assay [1] was below 10%. The “Levels … (as a % of DMSO control)” value on NEK7-HiBiT protein was “C (Levels of NEK7-HiBiT Protein > 50% and <75%)”. Besides, the EC50 in assay [2] was above 3160 nM.
Take `CCCCC1CCC(c2ccc3c(c2)CN(C2CCC(=O)NC2=O)C3=O)NC1` (mixture of isomers) [Compound 37, 3-(5-(5-butylpiperidin-2-yl)-1-oxoisoindolin-2-yl)piperidine-2,6-dione]: the activation at 1 µM in assay [1] was above 80%. For the same compound, the “Levels … (as a % of DMSO control)” value at NEK7-HiBiT protein is “B (Levels of NEK7-HiBiT Protein > 25% and ≤50%)”. The EC50 in assay [2] is 100 to 316 nM.
For the compound `O=C1CCC(N2Cc3cc(C4CCCN4)ccc3C2=O)C(=O)N1` (centres unmarked) [Compound 6, 3-(1-oxo-5-(pyrrolidin-2-yl)isoindolin-2-yl)piperidine-2,6-dione], the activation at 1 µM in assay [1] is 20 to 80%. At NEK7-HiBiT protein, the “Levels … (as a % of DMSO control)” value is “A (Levels of NEK7-HiBiT Protein ≤ 25%)”. Moreover, in assay [2], the EC50 is 316 to 1000 nM.
`CN1CCNC(c2ccc3c(c2)CN(C2CCC(=O)NC2=O)C3=O)C1` (centres unmarked) [Compound 67, 3-(5-(4-methylpiperazin-2-yl)-1-oxoisoindolin-2-yl)piperidine-2,6-dione]: in assay [1], the activation at 1 µM was 10 to 20%. In addition, the “Levels … (as a % of DMSO control)” value on NEK7-HiBiT protein is “B (Levels of NEK7-HiBiT Protein > 25% and ≤50%)”. In addition, the EC50 in assay [2] is above 3160 nM.
Take `O=C1CCC(N2Cc3cc(N4CCCCN4)ccc3C2=O)C(=O)N1` (centres unmarked) [Compound 58, 3-(1-oxo-5-(tetrahydropyridazin-1 (2H)-yl)isoindolin-2-yl)piperidine-2,6-dione]: in assay [1], the activation at 1 µM is 20 to 80%. Besides, the “Levels … (as a % of DMSO control)” value at NEK7-HiBiT protein was “C (Levels of NEK7-HiBiT Protein > 50% and <75%)”. Moreover, in assay [2], the EC50 is 100 to 316 nM.
For the compound `O=C1CCC(N2Cc3cc(C4CCC(Cc5ccccc5)CN4)ccc3C2=O)C(=O)N1` (single isomer, unassigned) [35 Isomer 2, 3-(5-(5-benzylpiperidin-2-yl)-1-oxoisoindolin-2-yl)piperidine-2,6-dione], on NEK7-HiBiT protein, the “Levels … (as a % of DMSO control)” value was “B (Levels of NEK7-HiBiT Protein > 25% and ≤50%)”.
Turning to `CC(C)(C)C(=O)OCN1C(=O)CCC(N2Cc3cc(C4CCCCN4)ccc3C2=O)C1=O` (centres unmarked) [Compound 63, (2,6-dioxo-3-(1-oxo-5-(piperidin-2-yl)isoindolin-2-yl)piperidin-1-yl)methyl pivalate], on NEK7-HiBiT protein, the “Levels … (as a % of DMSO control)” value was “A (Levels of NEK7-HiBiT Protein ≤ 25%)”.
